For data set [1], the system named is chicken chorioallantoic membrane (angiogenesis in chick embryos). Put plainly: Chicken chorioallantoic membrane (CAM) assay. Type of data set: in vivo.
Experimental: The one-day-old fertilized eggs were incubated for three days in the water-jacketed incubator (38° C., 85% humidity). The eggs were cracked and the chick embryos with intact yolks were placed in plastic Petri dishes containing 10 ml of RPMI-1640 medium (38° C., 85% humidity, 3% of CO2). After 3 days of incubation, the methylcellulose disk containing inhibitor was implanted on the CAMs of the individual embryos. After 48 h of incubation, CAM of individual embryo was analyzed for formation of avascular zones and photographed. The angiostatic effect was determined as a percentage of the area of blood vessels under the methylcellulose disks (3-5 eggs for each concentration) in relation to the non-treated areas. The area below the dialysis bag and two non-treated areas were scanned and saved on computer disk as tif files. Color images were converted into black/white images, contrast was enhanced, and images were saved as 16-bitmap files using Paint Software (Microsoft Corporation, Redmond, Va.). Black/white images were converted into false color (rainbow striped) images using Transform2 Software (Fortner, Sterling, Va.). […] This method provides some quantification of angiogenesis.
Data set [2] has as its target urokinase HMWt, Choay (Homo sapiens, UniProt P00749). Conditions: 0.05 M Tris pH 8.8, 37° C., substrate 0.5 mM, urokinase at 1000 u/mL; cited from earlier work.
For data set [3], the target named is urokinase LMWt, Abbott (Homo sapiens, UniProt P00749). Conditions: 0.05 M Tris pH 8.8, 37° C., substrate 0.5 mM, urokinase at 1000 u/mL; cited from earlier work.

The text below walks through data of patent US7592422B2, “Modified plasminogen activator inhibitor type-1 and methods based thereon” (Medical College of Ohio, priority 2002, dated 2009).

With `O=C(O[C@@H]1Cc2c(O)cc(O)cc2O[C@@H]1c1cc(O)c(O)c(O)c1)c1cc(O)c(O)c(O)c1` [EGCG, epigallocatechin gallate], in data set [1] (in methylcellulose disk on CAM), the “colour change of methylcellulose disks (sign of probable oxidation)” value was “the methylcellulose disks quickly change color”.
On to `N=C(N)NC(=O)c1nc(Cl)c(N)nc1N` [amiloride], for which the “large avascular zones outside of areas covered by methylcellulose disk containing the inhibitor” value in data set [1] (48 h) is “The effect was observed”.
For “Cbo-L-(γ)-Glu (α-t-BuO)-Gly-Arg-pNA.2AcOH [No. 244]”, in data set [2], the Vmax is on record as 0.54 μM mm-^1 and the κm is 30 µM. Further, in data set [3], the Vmax is listed as 0.53 μM mm-^1 and the κm was 80 µM.
Turning to VEGF, the “vessel formation, positive control disk” value in data set [1] (methylcellulose disk containing VEGF) is “dense areas of newly formed vessels were developed”.
